Values quoted from earlier work as cited in patent US20200245666A1, “CANNABINOID EMULSIONS, BEVERAGES AND FOODS” (Lighthouse Strategies, LLC, priority 2019, published 2020).

Conditions: smoking a 3.55% THC cigarette

SMILES: CCCCCc1cc(O)c2c(c1)OC(C)(C)[C@@H]1CCC(C)=C[C@@H]21 [THC, Δ9-tetrahydrocannabinol]
- peak plasma level: 152 ± 86.3 ng/mL
- time of peak plasma level after inhalation: approximately 10 minutes
